# Measurements taken from the NIST ThermoML archive (doi:10.1021/acs.jced.8b00222).
# Numbers after ± are expanded uncertainties.
# What was measured:
# [1] = 293.15 K; 101.33 kPa; Liquid; Pycnometric method
# [2] = refractive index (Na D-line) (dimensionless); details: 293.15 K; 101.33 kPa; Liquid; Standard Abbe refractometry
Structure (SMILES),mass density [1] [kg/m3],refractive index [2]
COC1CCCC1 [methoxycyclopentane],860.13 ± 2.1,1.4187 ± 0.0008
O [water],,1.3334 ± 0.0005
CC(=O)O [acetic acid],1048.93 ± 2.2,1.3717 ± 0.0008
O=Cc1ccco1 [2-furaldehyde],1159.16 ± 2.2,1.5259 ± 0.0008
